From patent US10039844B2, “Imaging tumor glycolysis by non-invasive measurement of pyruvate kinase M2” (The Board of Trustees of the Leland Stanford Junior …, priority 2014, dated 2018)
Blank lines part the entries; values can stand above or below the compound they belong to.

What was measured:
[1] = tested on: PKM2 in orthotopic GBM39 PDX tumors; test: PET imaging of orthotopic GBM39 PDX tumors at baseline and after TEPP-46 blocking; assay type: in vivo, mouse
Procedure: (§1) In vivo Tumor Models: For subcutaneous tumor models, U87 tumor cells (5×10^6 cells; 100 μL PBS) were injected subcutaneously on the back of female BALB/c nude mice (aged 6-8 weeks; Charles River Laboratories) and grown to approximately 150 mm^3. Tumor dimensions were measured periodically using a caliper (by the same experienced researcher), with tumor volumes calculated by the equation: volume=(π/6)×a×b×c, where a, b, and c represent three orthogonal axes of the tumor. For orthotopic brain tumor models, 2×10^5 U87 cells were implanted 0.5 mm anterior and 2 mm to the right of the bregma in the brains of 6-8 week-old nude mice, held in place using a stereotactic unit. The cells, suspended in 4 μL PBS, were injected at a depth of 3 mm over 5 min with an AS blunt-ended Hamilton syringe, which was subsequently held in place for a further 5 min. Animals were anaesthetized with an i.p. injection of 150 mg/kg ketamine, 15 mg/kg xylazine. Mice were subsequently imaged by MRI and PET 32-35 days post intracranial injection and GBM39 tumor-bearing mice were imaged between 44-50 days after implantation.
(§2) PET imaging scans were carried out on a docked Siemens Inveon PET/CT scanner (matrix size, 128×128×159; CT attenuation-corrected; non-scatter corrected), following a bolus i.v. injection of approximately 18.5 MBq of [^11C]DASA-23 into tumor-bearing mice. Dynamic scans were acquired in list mode format over 60 min. The acquired data were then sorted into 0.5-mm sinogram bins and 19 time frames for image reconstruction (4×15 s, 4×60 s and 11×300 s), which was done by iterative reconstruction using the following parameters: 3D ordered-subsets expectation maximization (3D-OSEM) followed by fast maximum a posteriori (fastMAP); MAP OSEM interations, 2; MAP subsets, 16; MAP iterations, 18.
(§3) The count densities were averaged for all volumes of interest at each time point to obtain a time versus radioactivity curve (TAC). Tumor and tissue TACs were normalized to injected dose, measured by a CRC-15 PET dose calibrator (Capintec, Inc.), and expressed as percentage injected dose per milliliter of tissue (% ID/mL). The area under the TAC, calculated as the integral of % ID/mL from 0 to 60 min, and the normalized uptake of radiotracer at 60 min (% ID/mL60) were also used for comparisons. Siemens Inveon Research Workplace software (v.4.0) was used for visualization of radiotracer uptake in the tumor, to define the three-dimensional (3D) volumes of interest (VOI) and for 3D-visualization to create volume rendering technique (VRT) images.

HeLa cells = test: Cell uptake and efflux of radiotracer in HeLa cells; assay type: cell-based, human
Procedure: (§4) Cell Uptake and Efflux Studies: U87 and HeLa cells (2×10^5) were plated into 6-well plates overnight before [^11C]DASA-23 uptake analysis. On the day of the experiment, fresh, pre-warmed DMEM containing 0.925 MBq of [^11C]DASA-23 was added to individual wells (1 mL/well, 9.25±4.63 pmol).
(§5) Cells were incubated with [^11C]DASA-23 at 37° C. and 5% CO2 over a 60 min time course. At the respective time points, plates were placed on ice, washed 3 times with ice-cold phosphate-buffered saline (PBS), and lysed in radioimmunoprecipitation assay buffer (Thermo Fisher Scientific Inc.; 500 μL). 300 μL cell lysates were transferred to counting tubes and decay-corrected radioactivity was determined on a y counter (Cobra II Auto-Gamma counter; Packard Biosciences Co.). The remaining lysate was frozen and used following radioactive decay for protein determination using a bicinchoninic acid (BCA) 96-well plate assay (Thermo Fisher Scientific Inc.) and for immunoblotting. In addition, 10 μL standards from the 0.925 MBq/mL solution added to cells were counted to quantitate percentage radiotracer uptake. For efflux studies, cells were incubated with radiotracer for 60 min, washed 3 times with room temperature (RT) Hank's Buffered Salt Solution (HBSS) before subsequent incubation at 37° C. in fresh, radiotracer-free, DMEM. At allotted times, samples were processed.

U87 human glioma cells = test: Cell uptake and efflux of radiotracer in U87 cells; assay type: cell-based
Procedure: as §4, §5

[2] = tested on: subcutaneous U87 human glioma xenografts; test: PET/CT and ex vivo biodistribution in mice bearing subcutaneous U87 xenografts; set-up: species or system mouse
Procedure: as §1, §2, §3
Ex vivo Biodistribution: After the PET imaging studies, 60 min post radiotracer administration, mice were sacrificed by exsanguination via cardiac puncture and tissues harvested. Tissue radioactivity for all organs was subsequently determined on a gamma counter (decay-corrected; Cobra II Auto-Gamma counter, Packard Biosciences Co, Pangbourne, UK). Ten-microliter standards from the stock activity were also counted for data normalization. Data were expressed as percent injected dose per gram of tissue (% ID/g).

[3] = Ex vivo mouse plasma stability; assay type: in vitro ADME; settings: after 60 min, 37° C.
Procedure: Plasma Stability: [^11C]DASA-23 stability in mouse plasma was assessed ex vivo according to previously described methodology (James et al., (2012) J. Med. Chem. 55: 8272-8282, incorporated herein by reference in its entirety.
Samples were incubated for 10 min, 30 min, and 60 min and compared to a standard from the respective injected probe.

[4] = tested on: orthotopic U87 human gliomas; test: PET imaging of orthotopic U87 tumors in mice; assay type: in vivo, mouse; settings: 30 min after injection
Procedure: as §1, with “Animals were anaesthetized with an i.p. injection of 150 mg/kg ketamine, 15 mg/kg xylazine. Mice were subsequently imaged by MRI and PET 32-35 days post intracranial injection and GBM39 tumor-bearing mice were imaged between 44-50 days after implantation.” left out
as §3, with “Siemens Inveon Research Workplace software (v.4.0) was used for visualization of radiotracer uptake in the tumor, to define the three-dimensional (3D) volumes of interest (VOI) and for 3D-visualization to create volume rendering technique (VRT) images.” left out

PKM2 [5] = target: T1, PKM2 (Homo sapiens, UniProt P14618); settings: versus PKM1, PKR and PKL; cited from earlier work
Target sequence in this assay (P14618 whole entry, species assumed): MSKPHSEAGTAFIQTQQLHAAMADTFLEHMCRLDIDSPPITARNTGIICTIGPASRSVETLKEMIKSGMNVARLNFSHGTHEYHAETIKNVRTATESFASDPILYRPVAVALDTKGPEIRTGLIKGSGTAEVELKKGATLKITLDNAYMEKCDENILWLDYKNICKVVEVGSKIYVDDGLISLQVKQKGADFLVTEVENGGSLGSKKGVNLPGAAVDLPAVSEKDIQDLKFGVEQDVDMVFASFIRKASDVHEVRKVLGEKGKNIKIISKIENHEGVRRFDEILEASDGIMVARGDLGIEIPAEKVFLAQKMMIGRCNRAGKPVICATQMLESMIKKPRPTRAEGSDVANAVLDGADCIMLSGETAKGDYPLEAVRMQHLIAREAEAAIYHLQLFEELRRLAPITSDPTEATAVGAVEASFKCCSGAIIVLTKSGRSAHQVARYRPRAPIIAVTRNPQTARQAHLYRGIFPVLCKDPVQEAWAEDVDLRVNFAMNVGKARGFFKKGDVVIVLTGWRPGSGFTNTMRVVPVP

PKM2 [6] = target: T1, PKM2; test: Radiotracer uptake after PKM2 siRNA knockdown in HeLa cells; assay type: cell-based; set-up: endogenous in cells; host or cells: HeLa
Procedure: PKM2 siRNA: Time course PKM2 knockdown in HeLa cells was assessed over 72 h post-transfection. Cells were seeded in 6-well plates in antibiotic-free DMEM at 1.5×10^6 cells/well 24 h prior to siRNA transfection with DharmaFECT1 (Thermo Scientific), according to the manufacturer's instruction. Specific siRNA targeting only PKM2 were custom made by Thermo Scientific using the following sequences: […] (sense) (SEQ ID NO: 1), […] (antisense) (SEQ ID NO: 2). Scrambled siRNA (siCtrl; Cell Signaling Technology) was used as a control. siRNA were added at a final concentration of 25 nM. [^11C]DASA-23 uptake (0.925 MBq/mL) was measured after 30 min in cells transfected with siCtrl and siPKM2 at 24 h, 48 h and 72 h post transfection, and processed as described in Example 4, above. Untreated cells were used as a further control, measured 24 h post addition of fresh DMEM and 96 h post seeding.
Western Blotting: Monoclonal rabbit antibody to PKM1 and PKM2 (1:1000 dilution, Cell Signaling Technology) were used in a standard western blotting protocol. A rabbit anti-actin antibody (Sigma-Aldrich Co. Ltd; 1:2000) was used as a loading control. Blots were scanned and signal quantification was performed using ImageJ (National Institutes of Health).
Target sequence in this assay (P14618 2-531 limits assumed): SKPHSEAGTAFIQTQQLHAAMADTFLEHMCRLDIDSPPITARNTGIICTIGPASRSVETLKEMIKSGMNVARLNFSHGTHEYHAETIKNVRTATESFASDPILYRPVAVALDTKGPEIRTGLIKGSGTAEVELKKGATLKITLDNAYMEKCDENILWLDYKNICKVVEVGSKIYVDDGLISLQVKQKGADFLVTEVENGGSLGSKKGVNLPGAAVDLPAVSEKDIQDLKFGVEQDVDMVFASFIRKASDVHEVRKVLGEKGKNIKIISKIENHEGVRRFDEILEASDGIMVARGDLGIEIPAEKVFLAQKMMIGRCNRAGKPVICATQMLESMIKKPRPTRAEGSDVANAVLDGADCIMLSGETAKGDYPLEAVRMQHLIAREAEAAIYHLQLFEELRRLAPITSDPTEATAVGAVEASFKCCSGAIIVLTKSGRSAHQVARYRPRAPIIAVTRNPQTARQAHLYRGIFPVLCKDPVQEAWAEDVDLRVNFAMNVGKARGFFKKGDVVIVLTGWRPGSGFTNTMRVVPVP

[7] = 30 min post removal of exogenous radiotracer

Structure (SMILES): Cn1c2cc([S+](C)[O-])sc2c2cnn(Cc3cccc(N)c3)c(=O)c21 (centres unmarked) [TEPP-46, 6-((3-Aminophenyl)methyl)-4-methyl-2-methylsulfinylthieno[3,4]pyrrolo[1,3-d]pyridazin-5-one, reference compound]
decrease of tumor-associated [^11C]DASA-23 retention ([1]; TEPP-46 50 mg/kg i.p., 1 hour before radiotracer): 42% | effect on [^11C]DASA-23 tumor signal ([1]; one hour after TEPP-46 injection): complete ablation of tumor signal to background levels

uptake ratio of U87 tumor to blood ([2]; 60 min post injection): 1.1 | uptake ratio of U87 tumor to brain ([2]; 60 min post injection): 2.1 | uptake ratio of U87 tumor to muscle ([2]; 60 min post injection): 1.6 | time of peak brain uptake ([2]; dynamic PET, normal brain, after injection): 30 s | time to reach background levels in brain ([2]; dynamic PET, post injection): ≤ 10 min | time of peak tumor uptake ([2]; dynamic PET, subcutaneous U87 tumor): 10 min | accumulation in the brain ([2]; ex vivo biodistribution): did not accumulate in the brain | U87 tumor uptake ([2]; ex vivo biodistribution, 60 min post injection): 1.78±0.23 % of the injected dose (ID)/g | parent remaining in plasma [3]: > 96% | radioactivity in the contralateral background tissue [4]: 0.78±0.18 % ID/g | radioactivity in the tumor ([4]; orthotopic U87 tumor): 1.68±0.47 % ID/g | tumor-associated retention at baseline ([1]; GBM39 tumor, 30 min after radiotracer injection): 1.61±0.25 % ID/g | tumor-associated retention after TEPP-46 ([1]; GBM39 tumor, 30 min after radiotracer injection, 1 hour after TEPP-46 50 mg/kg i.p.): 0.93±0.10 % ID/g | uptake in control, contralateral healthy brain ([1]; GBM39 tumor-bearing mice): 0.79±0.18 % ID/g | reduction in uptake in siPKM2 cells versus control siRNA (PKM2 [6]; 24 h post transfection): 16.5% | uptake in siPKM2 cells as % of siCtrl cells (PKM2 [6]; 72 h post transfection): 44.5%
Structure (SMILES): [11CH3]Oc1ccc(S(=O)(=O)N2CCN(S(=O)(=O)c3c(F)cccc3F)CC2)cc1 [[^11C]DASA-23, 1-((2,6-difluorophenyl)sulfon-yl)-4-((4-(methoxy-^11C)phenyl)sulfonyl)piperazine]
initial intracellular radioactivity retained (HeLa cells; [7]): about 40% | cellular uptake (HeLa cells; by 30 min): 14.9±2.0 %radioactivity/mg protein | initial intracellular radioactivity retained (U87 human glioma cells; [7]): about 40% | cellular uptake (U87 human glioma cells; by 30 min): 19.6±2.0 % radioactivity/mg protein | selectivity of activation versus other pyruvate kinase isozymes (PKM2 [5]): selective activation of PKM2
